Test results from patent publication US20230150944A1, “PESTICIDALLY ACTIVE HETEROCYCLIC DERIVATIVES WITH SULFOXIMINE CONTAINING SUBSTITUENTS” (SYNGENTA CROP PROTECTION AG, priority 2018, published 2023).

Assays:
Assay type in all cases: in vivo
[1] = test system: Bemisia tabaci (Cotton White Fly); assay: Example B1: Activity on Bemisia tabaci, cotton leaf disc spray; conditions: foliar, 144 h, application rate of 200 ppm, adult white flies on cotton leaf discs, 6 days after incubation
Procedure: Example B1: Activity on Bemisia tabaci (Cotton White Fly)
Cotton leaf discs were placed on agar in 24-well microtiter plates and sprayed with aqueous test solutions prepared from 10′000 ppm DMSO stock solutions. After drying the leaf discs were infested with adult white flies. The samples were checked for mortality 6 days after incubation.

[2] = test system: Diabrotica balteata (Corn Root Worm); assay: Example B2: Activity on Diabrotica balteata, maize sprout spray; conditions: 96 h, application rate of 200 ppm, L2 larvae on maize sprouts, 4 days after infestation, read-out: effect in at least one of the two categories (mortality or growth inhibition)
Procedure: Example B2: Activity on Diabrotica balteata (Corn Root Worm)
Maize sprouts placed onto an agar layer in 24-well microtiter plates were treated with aqueous test solutions prepared from 10′000 ppm DMSO stock solutions by spraying. After drying, the plates were infested with L2 larvae (6 to 10 per well). The samples were assessed for mortality and growth inhibition in comparison to untreated samples 4 days after infestation.

[3] = test system: Euschistus heros (Neotropical Brown Stink Bug); assay: Example B3: Activity on Euschistus heros, soybean leaf spray; conditions: 120 h, application rate of 200 ppm, N2 nymphs on soybean leaves, 5 days after infestation, read-out: effect in at least one of the two categories (mortality or growth inhibition)
Procedure: Example B3: Activity on Euschistus heros (Neotropical Brown Stink Bug)
Soybean leaves on agar in 24-well microtiter plates were sprayed with aqueous test solutions prepared from 10′000 ppm DMSO stock solutions. After drying the leaves were infested with N2 nymphs. The samples were assessed for mortality and growth inhibition in comparison to untreated samples 5 days after infestation.

[4] = test system: Myzus persicae (Green Peach Aphid); assay: Example B4: Activity on Myzus persicae, sunflower leaf disc spray; conditions: foliar, 144 h, application rate of 200 ppm, mixed-age aphids on sprayed sunflower leaf discs, 6 days after infestation
Procedure: Example B4: Activity on Myzus persicae (Green Peach Aphid)
Sunflower leaf discs were placed onto agar in a 24-well microtiter plate and sprayed with aqueous test solutions prepared from 10′000 ppm DMSO stock solutions. After drying, the leaf discs were infested with an aphid population of mixed ages. The samples were assessed for mortality 6 days after infestation.

[5] = test system: Myzus persicae (Green Peach Aphid); assay: Example B5: Activity on Myzus persicae, pea seedling roots in test solution; conditions: 144 h, test rate of 24 ppm, roots of infested pea seedlings placed into test solution, 6 days
Procedure: Example B5: Activity on Myzus persicae (Green Peach Aphid)
Roots of pea seedlings infested with an aphid population of mixed ages were placed directly into aqueous test solutions prepared from 10′000 DMSO stock solutions. The samples were assessed for mortality 6 days after placing seedlings into test solutions.

[6] = test system: Plutella xylostella (Diamond Back Moth); assay: Example B6: Activity on Plutella xylostella, artificial diet, L2 larvae; conditions: 120 h, application rate of 200 ppm, 5 days after infestation, read-out: effect in at least one of the two categories (mortality or growth inhibition)
Procedure: Example B6: Activity on Plutella xylostella (Diamond Back Moth)
(§1) 24-well microtiter plates with artificial diet were treated with aqueous test solutions prepared from 10′000 ppm DMSO stock solutions by pipetting. After drying, the plates were infested with L2 larvae (10 to 15 per well). The samples were assessed for mortality and growth inhibition in comparison to untreated samples 5 days after infestation.

[7] = test system: Spodoptera littoralis (Egyptian Cotton Leaf Worm); assay: Example B7: Activity on Spodoptera littoralis, cotton leaf disc spray; conditions: foliar, 72 h, application rate of 200 ppm, L1 larvae on cotton leaf discs, 3 days after infestation, read-out: control (mortality, anti-feeding effect or growth inhibition)
Procedure: Example B7: Activity on Spodoptera littoralis (Egyptian Cotton Leaf Worm)
Cotton leaf discs were placed onto agar in 24-well microtiter plates and sprayed with aqueous test solutions prepared from 10′000 ppm DMSO stock solutions. After drying the leaf discs were infested with five L1 larvae. The samples were assessed for mortality, anti-feeding effect, and growth inhibition in comparison to untreated samples 3 days after infestation. Control of Spodoptera littoralis by a test sample is given when at least one of the categories mortality, anti-feedant effect, and growth inhibition is higher than the untreated sample.

[8] = test system: Plutella xylostella (Diamond Back Moth); assay: Example B11: Activity on Plutella xylostella, artificial diet, eggs; conditions: 192 h, application rate of 200 ppm, 8 days after infestation, read-out: effect in at least one of the two categories (mortality or growth inhibition)
Procedure: Example B11: Activity on Plutella xylostella (Diamond Back Moth)
as §1, with “drying, Plutella eggs were pipetted through a plastic stencil onto a gel blotting paper and” for “drying,”, “plate was closed” for “plates were infested”, “it.” for “L2 larvae (10 to 15 per well).”, “8” for “5”

CCS(=N)(=O)c1cc(C2CC2)cnc1-c1nc2cc(SC(F)(F)F)ncc2n1C (stereo not drawn) [Example P4, [5-cyclopropyl-2-[3-methyl-6-(trifluoromethylsulfanyl)imidazo[4,5-c]pyridin-2-yl]-3-pyridyl]-ethyl-imino-oxo-λ^6-sulfane]
≥ 80%: mortality at 200 ppm [1] | percent effect (mortality or growth inhibition) at 200 ppm [2] | percent effect (mortality or growth inhibition) at 200 ppm [3] | mortality at 200 ppm [4] | mortality at 24 ppm [5] | percent effect (mortality or growth inhibition) at 200 ppm [6] | percent control (mortality, anti-feedant effect or growth inhibition) at 200 ppm [7]

CCS(=N)(=O)c1cc(C2CC2)cnc1-c1nc2cc(C(F)(F)F)ncc2n1C (stereo not drawn) [Example P5, [5-cyclopropyl-2-[3-methyl-6-(trifluoromethyl)imidazo[4,5-c]pyridin-2-yl]-3-pyridyl]-ethyl-imino-oxo-λ^6-sulfane]
≥ 80%: percent effect (mortality or growth inhibition) at 200 ppm [2] | mortality at 200 ppm [4] | mortality at 24 ppm [5] | percent effect (mortality or growth inhibition) at 200 ppm [6] | percent control (mortality, anti-feedant effect or growth inhibition) at 200 ppm [7]

CCS(=N)(=O)c1cc(C2(C#N)CC2)cnc1-c1nc2cc(C(F)(F)F)cnc2n1C (stereo not drawn) [Example P6, 1-[5-(ethylsulfonimidoyl)-6-[3-methyl-6-(trifluoromethyl)imidazo[4,5-b]pyridin-2-yl]-3-pyridyl]cyclopropanecarbonitrile]
≥ 80%: mortality at 200 ppm [1] | mortality at 200 ppm [4] | mortality at 24 ppm [5] | percent effect (mortality or growth inhibition) at 200 ppm [6]

CCS(=N)(=O)c1cc(C2CC2)cnc1-n1cc2cnc(C(F)(F)F)cc2n1 (stereo not drawn) [Example P7, [5-cyclopropyl-2-[6-(trifluoromethyl)pyrazolo[4,3-c]pyridin-2-yl]-3-pyridyl]-ethyl-imino-oxo-λ^6-sulfane]
≥ 80%: percent effect (mortality or growth inhibition) at 200 ppm [2] | mortality at 200 ppm [4] | mortality at 24 ppm [5] | percent effect (mortality or growth inhibition) at 200 ppm [6] | percent control (mortality, anti-feedant effect or growth inhibition) at 200 ppm [7]

CCS(=N)(=O)c1cc(C2(C#N)CC2)cnc1-c1nc2cc(C(F)(F)F)n(OC)c(=O)c2n1C (stereo not drawn) [Example P8, 1-[5-(ethylsulfonimidoyl)-6-[5-methoxy-3-methyl-4-oxo-6-(trifluoromethyl)imidazo[4,5-c]pyridin-2-yl]-3-pyridyl]cyclopropanecarbonitrile]
≥ 80%: mortality at 200 ppm [1] | percent effect (mortality or growth inhibition) at 200 ppm [2] | percent effect (mortality or growth inhibition) at 200 ppm [3] | mortality at 200 ppm [4] | mortality at 24 ppm [5] | percent effect (mortality or growth inhibition) at 200 ppm [6] | percent control (mortality, anti-feedant effect or growth inhibition) at 200 ppm [7]

CCS(=N)(=O)c1cc(C2(C#N)CC2)ccc1-c1nc2cc(SC(F)(F)F)ncc2n1C (stereo not drawn) [Example P9, 1-[3-(ethylsulfonimidoyl)-4-[3-methyl-6-(trifluoromethylsulfanyl)imidazo[4,5-c]pyridin-2-yl]phenyl]cyclopropanecarbonitrile]
≥ 80%: percent effect (mortality or growth inhibition) at 200 ppm [3] | mortality at 200 ppm [4] | mortality at 24 ppm [5]

CCS(=N)(=O)c1cc(C2(C#N)CC2)cnc1-c1nc2cc(C(F)(F)F)nnc2n1C (stereo not drawn) [Example P10, 1-[5-(ethylsulfonimidoyl)-6-[7-methyl-3-(trifluoromethyl)imidazo[4,5-c]pyridazin-6-yl]-3-pyridyl]cyclopropanecarbonitrile]
≥ 80%: mortality at 200 ppm [1] | percent effect (mortality or growth inhibition) at 200 ppm [2] | percent effect (mortality or growth inhibition) at 200 ppm [3] | mortality at 200 ppm [4] | mortality at 24 ppm [5]

CCS(=N)(=O)c1cc(C2CC2)cnc1-c1nc2cc(C(F)(F)F)nnc2n1C (stereo not drawn) [Example P11, [5-cyclopropyl-2-[7-methyl-3-(trifluoromethyl)imidazo[4,5-c]pyridazin-6-yl]-3-pyridyl]-ethyl-imino-oxo-λ^6-sulfane]
≥ 80%: percent effect (mortality or growth inhibition) at 200 ppm [2] | mortality at 200 ppm [4] | mortality at 24 ppm [5] | percent effect (mortality or growth inhibition) at 200 ppm [6] | percent control (mortality, anti-feedant effect or growth inhibition) at 200 ppm [7]

CCS(=N)(=O)c1cc(C2CC2)cnc1-c1nc2cc(C(F)(F)F)cnc2n1C (stereo not drawn) [Example P12, [5-cyclopropyl-2-[3-methyl-6-(trifluoromethyl)imidazo[4,5-b]pyridin-2-yl]-3-pyridyl]-ethyl-imino-oxo-λ^6-sulfane]
≥ 80%: percent effect (mortality or growth inhibition) at 200 ppm [2] | mortality at 200 ppm [4] | mortality at 24 ppm [5] | percent effect (mortality or growth inhibition) at 200 ppm [6] | percent control (mortality, anti-feedant effect or growth inhibition) at 200 ppm [7]

CCS(=N)(=O)c1cc(C2(C#N)CC2)ccc1-c1nc2cc(C(F)(F)F)ncc2n1C (stereo not drawn) [Example P13, 1-[3-(ethylsulfonimidoyl)-4-[3-methyl-6-(trifluoromethyl)imidazo[4,5-c]pyridin-2-yl]phenyl]cyclopropanecarbonitrile]
≥ 80%: mortality at 200 ppm [1] | percent effect (mortality or growth inhibition) at 200 ppm [2] | percent effect (mortality or growth inhibition) at 200 ppm [3] | mortality at 200 ppm [4] | mortality at 24 ppm [5]

CCn1c(C(F)(F)F)cc2nc(-c3ncc(C4(C#N)CC4)cc3S(=N)(=O)CC)n(C)c2c1=O (stereo not drawn) [Example P14, 1-[6-[5-ethyl-3-methyl-4-oxo-6-(trifluoromethyl)imidazo[4,5-c]pyridin-2-yl]-5-(ethylsulfonimidoyl)-3-pyridyl] cyclopropanecarbonitrile]
≥ 80%: mortality at 200 ppm [1] | percent effect (mortality or growth inhibition) at 200 ppm [2] | percent effect (mortality or growth inhibition) at 200 ppm [3] | mortality at 200 ppm [4] | mortality at 24 ppm [5] | percent effect (mortality or growth inhibition) at 200 ppm [6] | percent control (mortality, anti-feedant effect or growth inhibition) at 200 ppm [7]

CCS(=N)(=O)c1cc(C2(C#N)CC2)ccc1-c1nc2cc(C(F)(F)F)cnc2n1C (stereo not drawn) [Example P15, 1-[3-(ethylsulfonimidoyl)-4-[3-methyl-6-(trifluoromethyl)imidazo[4,5-b]pyridin-2-yl]phenyl]cyclopropanecarbonitrile]
≥ 80%: mortality at 200 ppm [1] | percent effect (mortality or growth inhibition) at 200 ppm [3] | mortality at 200 ppm [4] | mortality at 24 ppm [5] | percent effect (mortality or growth inhibition) at 200 ppm [6] | percent control (mortality, anti-feedant effect or growth inhibition) at 200 ppm [7]

CCS(=N)(=O)c1cc(C2(C#N)CC2)cnc1-n1cc2cnc(C(F)(F)F)cc2n1 (stereo not drawn) [Example P17, 1-[5-(ethylsulfonimidoyl)-6-[6-(trifluoromethyl)pyrazolo[4,3-c]pyridin-2-yl]-3-pyridyl] cyclopropanecarbonitrile]
≥ 80%: mortality at 200 ppm [4] | mortality at 24 ppm [5] | percent effect (mortality or growth inhibition) at 200 ppm [8]

CCS(=N)(=O)c1cc(C2CC2)cnc1-c1nc2cc(SC(F)(F)F)ccc2o1 (stereo not drawn) [Example P18, [5-cyclopropyl-2-[5-(trifluoromethylsulfanyl)-1,3-benzoxazol-2-yl]-3-pyridyl]-ethyl-imino-oxo-λ^6-sulfane]
≥ 80%: percent effect (mortality or growth inhibition) at 200 ppm [8]

CCS(=N)(=O)c1cc(C2CC2)cnc1-c1nc2cc(S(=O)(=O)C(F)(F)F)ccc2o1 (stereo not drawn) [Example P19, [5-cyclopropyl-2-[5-(trifluoromethylsulfonyl)-l ,3-benzoxazol-2-yl]-3-pyridyl]-ethyl-imino-oxo-λ^6-sulfane]
≥ 80%: percent effect (mortality or growth inhibition) at 200 ppm [8]
